From US20240132463A1, “SUBSTITUTED N-(2-(2,6-DIOXOPIPERIDIN-3-YL)-1,3-DIOXOISOINDOLIN-5-YL)ARYLSULFONAMIDE ANALOGS AS MODULATORS OF CEREBLON PROTEIN” (ST. JUDE CHILDREN'S RESEARCH HOSPITAL, INC., priority 2020, published 2024)

The molecules below were run against 6×His-CRBN-DDB1 protein (Homo sapiens (Human), UniProt Q96SW2) (assay: CRBN fluorescence polarization assay). Conditions: cereblon binding, class symbols; read-out: CRBN FP IC50.
Type: binding
Experimental: 6×His-CRBN-DDB1 protein (200 nM) and Cy5-O-Len probe (30 nM) were combined in 20 mM HEPES pH 7, 150 mM NaCl, 0.005% Tween-20 assay buffer. […] The plates were incubated in the dark for 1 hour at room temperature and then read on an Envision plate reader (PerkinElmer, Massachusetts, USA).

6×His-CRBN-DDB1 protein, sequence (Q96SW2 whole entry): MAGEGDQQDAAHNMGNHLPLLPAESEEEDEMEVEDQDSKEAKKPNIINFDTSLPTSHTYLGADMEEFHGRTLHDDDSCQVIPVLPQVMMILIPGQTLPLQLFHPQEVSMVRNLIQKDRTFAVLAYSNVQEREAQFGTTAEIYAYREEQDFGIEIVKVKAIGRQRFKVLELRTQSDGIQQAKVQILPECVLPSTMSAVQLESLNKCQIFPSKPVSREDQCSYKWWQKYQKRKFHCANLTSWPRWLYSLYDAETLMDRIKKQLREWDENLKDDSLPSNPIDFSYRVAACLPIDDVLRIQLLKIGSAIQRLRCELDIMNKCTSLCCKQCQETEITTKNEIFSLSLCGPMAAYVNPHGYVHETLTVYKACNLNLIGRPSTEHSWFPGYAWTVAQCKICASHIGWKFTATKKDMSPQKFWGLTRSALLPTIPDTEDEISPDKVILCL
6×His-CRBN-DDB1 protein, sequence (Q16531 whole entry partner): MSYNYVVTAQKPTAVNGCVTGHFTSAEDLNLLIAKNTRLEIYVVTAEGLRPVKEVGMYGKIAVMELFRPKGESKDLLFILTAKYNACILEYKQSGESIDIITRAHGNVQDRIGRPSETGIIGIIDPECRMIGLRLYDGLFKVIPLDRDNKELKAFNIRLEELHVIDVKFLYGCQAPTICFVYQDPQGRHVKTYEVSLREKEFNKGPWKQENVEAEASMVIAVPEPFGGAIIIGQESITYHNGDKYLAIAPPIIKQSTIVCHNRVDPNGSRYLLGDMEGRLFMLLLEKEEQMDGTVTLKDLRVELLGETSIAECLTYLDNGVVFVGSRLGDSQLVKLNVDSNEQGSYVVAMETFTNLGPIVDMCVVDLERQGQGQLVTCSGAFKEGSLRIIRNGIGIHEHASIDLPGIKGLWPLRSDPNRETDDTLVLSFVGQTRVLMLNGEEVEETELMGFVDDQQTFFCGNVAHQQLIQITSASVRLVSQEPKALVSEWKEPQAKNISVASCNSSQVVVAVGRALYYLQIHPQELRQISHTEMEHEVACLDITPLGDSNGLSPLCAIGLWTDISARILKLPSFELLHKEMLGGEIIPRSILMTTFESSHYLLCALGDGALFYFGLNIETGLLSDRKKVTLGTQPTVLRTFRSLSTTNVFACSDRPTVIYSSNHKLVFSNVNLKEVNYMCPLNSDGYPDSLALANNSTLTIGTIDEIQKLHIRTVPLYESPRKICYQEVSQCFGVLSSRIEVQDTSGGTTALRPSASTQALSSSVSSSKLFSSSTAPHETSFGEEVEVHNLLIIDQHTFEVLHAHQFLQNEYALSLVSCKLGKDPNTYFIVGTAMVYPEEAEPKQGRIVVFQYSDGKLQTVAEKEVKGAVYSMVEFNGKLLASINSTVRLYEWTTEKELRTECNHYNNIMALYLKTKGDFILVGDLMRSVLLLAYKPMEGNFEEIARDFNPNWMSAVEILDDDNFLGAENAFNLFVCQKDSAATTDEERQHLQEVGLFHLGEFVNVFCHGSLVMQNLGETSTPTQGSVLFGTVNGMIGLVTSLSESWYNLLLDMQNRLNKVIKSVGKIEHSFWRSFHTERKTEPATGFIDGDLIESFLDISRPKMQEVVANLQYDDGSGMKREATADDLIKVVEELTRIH

| IC50 [nM] | Structure (SMILES) |
| --- | --- |
| < 1000 | Cc1c(Cl)cccc1S(=O)(=O)Nc1ccc2c(c1)C(=O)N(C1CCC(=O)NC1=O)C2 (centres unmarked) [Compound 36, 3-chloro-N-(2-(2,6-dioxopiperidin-3-yl)-3-oxoisoindolin-5-yl)-2-methylbenzenesulfonamide] |
| < 1000 | O=C1CCC(N2C(=O)c3ccc(NS(=O)(=O)c4ccco4)cc3C2=O)C(=O)N1 (centres unmarked) [Compound 91, N-(2-(2,6-dioxopiperidin-3-yl)-1,3-dioxoisoindolin-5-yl)furan-2-sulfonamide] |
| < 1000 | Cc1ccc(F)c(S(=O)(=O)Nc2ccc3c(c2)CN(C2CCC(=O)NC2=O)C3=O)c1 (centres unmarked) [Compound 53] |
| < 1000 | O=C1CCC(N2C(=O)c3ccc(NS(=O)(=O)c4ccccc4Br)cc3C2=O)C(=O)N1 (centres unmarked) [Compound 65, 2-bromo-N-(2-(2,6-dioxopiperidin-3-yl)-1,3-dioxoisoindolin-5-yl)benzenesulfonamide] |
| < 1000 | O=C1CCC(N2Cc3ccc(NS(=O)(=O)c4ccccc4C(F)(F)F)cc3C2=O)C(=O)N1 (centres unmarked) [Compound 28, N-(2-(2,6-dioxopiperidin-3-yl)-3-oxoisoindolin-5-yl)-2-(trifluoromethyl)benzenesulfonamide] |
| 1000 to 10000 | O=C1CCC(N2Cc3ccc(NS(=O)(=O)c4ccc(F)c(Cl)c4)cc3C2=O)C(=O)N1 (centres unmarked) [Compound 31, 3-chloro-N-(2-(2,6-dioxopiperidin-3-yl)-3-oxoisoindolin-5-yl)-4-fluorobenzenesulfonamide] |
| 1000 to 10000 | O=C1CCC(N2C(=O)c3ccc(NS(=O)(=O)c4cccnc4)cc3C2=O)C(=O)N1 (centres unmarked) [Compound 85, N-(2-(2,6-dioxopiperidin-3-yl)-1,3-dioxoisoindolin-5-yl)pyridine-3-sulfonamide] |
| < 1000 | Cc1c(Cl)cccc1S(=O)(=O)Nc1ccc2c(c1)CN(C1CCC(=O)NC1=O)C2=O (centres unmarked) [Compound 55, 3-chloro-N-(2-(2,6-dioxopiperidin-3-yl)-1-oxoisoindolin-5-yl)-2-methylbenzenesulfonamide] |
| < 1000 | O=C1CCC(N2Cc3cc(NS(=O)(=O)c4ccccc4C(F)(F)F)ccc3C2=O)C(=O)N1 (centres unmarked) [Compound 44, N-(2-(2,6-dioxopiperidin-3-yl)-1-oxoisoindolin-5-yl)-2-(trifluoromethyl)benzenesulfonamide] |
| < 1000 | N#Cc1ccc(S(=O)(=O)Nc2ccc3c(c2)C(=O)N(C2CCC(=O)NC2=O)C3=O)cc1 (centres unmarked) [Compound 64, 4-cyano-N-(2-(2,6-dioxopiperidin-3-yl)-1,3-dioxoisoindolin-5-yl)benzenesulfonamide] |
| 1000 to 10000 | COc1ccc(S(=O)(=O)Nc2ccc3c(c2)C(=O)N(C2CCC(=O)NC2=O)C3)cc1 (centres unmarked) [Compound 24, N-(2-(2,6-dioxopiperidin-3-yl)-3-oxoisoindolin-5-yl)-4-methoxybenzenesulfonamide] |
| < 1000 | O=C1CCC(N2C(=O)c3ccc(NS(=O)(=O)c4ccc(F)c(F)c4)cc3C2=O)C(=O)N1 (centres unmarked) [Compound 11, N-(2-(2,6-dioxopiperidin-3-yl)-1,3-dioxoisoindolin-5-yl)-3,4-difluorobenzenesulfonamide] |
| < 1000 | Cc1ccc(S(=O)(=O)Nc2ccc3c(c2)C(=O)N(C2CCC(=O)NC2=O)C3)cc1 (centres unmarked) [Compound 25, N-(2-(2,6-dioxopiperidin-3-yl)-3-oxoisoindolin-5-yl)-4-methylbenzenesulfonamide] |
| < 1000 | COc1cccc(S(=O)(=O)Nc2ccc3c(c2)C(=O)N(C2CCC(=O)NC2=O)C3)c1 (centres unmarked) [Compound 29, N-(2-(2,6-dioxopiperidin-3-yl)-3-oxoisoindolin-5-yl)-3-methoxybenzenesulfonamide] |
| < 1000 | O=C1CCC(N2Cc3ccc(NS(=O)(=O)c4ccc(F)cc4)cc3C2=O)C(=O)N1 (centres unmarked) [Compound 23, N-(2-(2,6-dioxopiperidin-3-yl)-3-oxoisoindolin-5-yl)-4-fluorobenzenesulfonamide] |
| < 1000 | O=C1CCC(N2C(=O)c3ccc(NS(=O)(=O)c4ccc(-c5ccccc5)cc4)cc3C2=O)C(=O)N1 (centres unmarked) [Compound 62, N-(2-(2,6-dioxopiperidin-3-yl)-1,3-dioxoisoindolin-5-yl)(1,1′-biphenyl]-4-sulfonamide] |
| < 1000 | CC(C)c1ccc(S(=O)(=O)Nc2ccc3c(c2)C(=O)N(C2CCC(=O)NC2=O)C3)cc1 (centres unmarked) [Compound 30, N-(2-(2,6-dioxopiperidin-3-yl)-3-oxoisoindolin-5-yl)-4-isopropylbenzenesulfonamide] |
| < 1000 | O=C1CCC(N2Cc3ccc(NS(=O)(=O)c4ccccc4OC(F)(F)F)cc3C2=O)C(=O)N1 (centres unmarked) [Compound 37, N-(2-(2,6-dioxopiperidin-3-yl)-3-oxoisoindolin-5-yl)-2-(trifluoromethoxy)benzenesulfonamide] |
| < 1000 | O=C1CCC(N2Cc3cc(NS(=O)(=O)c4ccc(-c5ccccc5)cc4)ccc3C2=O)C(=O)N1 (centres unmarked) [Compound 51, N-(2-(2,6-dioxopiperidin-3-yl)-1-oxoisoindolin-5-yl)-[1,1′-bipheny]-4-sulfonamide] |
| < 1000 | CC(C)(C)c1ccc(S(=O)(=O)Nc2ccc3c(c2)C(=O)N(C2CCC(=O)NC2=O)C3=O)cc1 (centres unmarked) [Compound 3, 4-(tert-butyl)-N-(2-(2,6-dioxopiperidin-3-yl)-1,3-dioxoisoindolin-5-yl)benzenesulfonamide] |
| < 1000 | Cc1ccc(S(=O)(=O)Nc2ccc3c(c2)C(=O)N(C2CCC(=O)NC2=O)C3)cc1Cl (centres unmarked) [Compound 33, 3-chloro-N-(2-(2,6-dioxopiperidin-3-yl)-3-oxoisoindolin-5-yl)-4-methylbenzenesulfonamide] |
| < 1000 | COc1ccc(S(=O)(=O)Nc2ccc3c(c2)CN(C2CCC(=O)NC2=O)C3=O)cc1 (centres unmarked) [Compound 40, N-(2-(2,6-dioxopiperidin-3-yl)-1-oxoisoindolin-5-yl)-4-methoxybenzenesulfonamide] |
| 1000 to 10000 | CCOc1ccccc1S(=O)(=O)Nc1ccc2c(c1)C(=O)N(C1CCC(=O)NC1=O)C2=O (centres unmarked) [Compound 79, N-(2-(2,6-dioxopiperidin-3-yl)-1,3-dioxoisoindolin-5-yl)-2-ethoxybenzenesulfonamide] |
| < 1000 | O=C1CCC(N2Cc3ccc(NS(=O)(=O)c4ccc(C(F)(F)F)cc4)cc3C2=O)C(=O)N1 (centres unmarked) [Compound 26, N-(2-(2,6-dioxopiperidin-3-yl)-3-oxoisoindolin-5-yl)-4-(trifluoromethyl)benzenesulfonamide] |
| < 1000 | COc1ccc(S(=O)(=O)Nc2ccc3c(c2)C(=O)N(C2CCC(=O)NC2=O)C3=O)cc1 (centres unmarked) [Compound 14, N-(2-(2,6-dioxopiperidin-3-yl)-1,3-dioxoisoindolin-5-yl)-4-methoxybenzenesulfonamide] |
| < 1000 | O=C1CCC(N2C(=O)c3ccc(NS(=O)(=O)Cc4ccc(Cl)cc4)cc3C2=O)C(=O)N1 (centres unmarked) [Compound 57, 1-(4-chlorophenyl)-N-(2-(2,6-dioxopiperidin-3-yl)-1,3-dioxoisoindolin-5-yi)methanesulfonamide] |
